Source: US20220133738A1, “GENOTYPE AND DOSE-DEPENDENT RESPONSE TO AN ASBTI IN PATIENTS WITH BILE SALT EXPORT PUMP DEFICIENCY” (MIRUM PHARMACEUTICALS, INC., priority 2019, published 2022)

System: overweight and obese adults
Experiment: Dose-ranging phase 1 clinical study (NCT02475317): fecal bile acid excretion with maralixibat and volixibat
Assay type: in vivo, human
Details: for fBA excretion, mean change from baseline: baseline to day 6 and 7

## CCCC[C@]1(CC)CS(=O)(=O)c2ccc(N(C)C)cc2[C@@H](c2cccc(NC(=O)N[C@@H]3O[C@H](COS(=O)(=O)O)[C@@H](O)[C@H](OCc4ccccc4)[C@H]3O)c2)[C@H]1O [volixibat]
10 mg dose (QD), 7 days
  fBA excretion, mean change from baseline: 744 µmol
20 mg dose (QD), 7 days
  fBA excretion, mean change from baseline: 874 µmol
Across tested doses, 7 days
  fBA excretion, dose dependence: increased in a dose-dependent manner
All doses, 7 days
  treatment-emergent adverse events: mild, and none were serious
Baseline to day 7, greatest change at maralixibat 50 mg BID
  Mean serum 7αC4: increased
Day 7 versus baseline
  Mean sBA levels: not elevated
